# Laboratory results taken from patent US20200087625A1, “METHODS FOR ISOLATING, EXPANDING AND ADMINISTERING CANCER SPECIFIC CD8+ T CELLS” (priority 2017, published 2020).
# Tested on: CD8+ T cells
# Test: CD8+ T cell activation (mLN flow cytometry) and lung histology in IV metastasis model
# Assay type: in vivo, BALB/c mice
# Conditions: day 21, vs vehicle
# Description: FIGS. 23A-23G. Systemic administration of […] induces tumor-specific CD8^+ T cells. (A) Protocol of IV metastasis model. (B) BALB/c mice (n=B-15/group) were i.v. injected with 4T1 cells (2×10^4) on day 0.1V270 (2, 20, or 200 μg/injection) was i.p. administered on days −1, 7, 10, and 14. The numbers of lung nodules were counted on day 21. (C) 200 μg/injection 1V270 was i.p. administered on days −1 or 0 followed by days 7, 10, and 14 where indicated. The numbers of lung nodules were counted on day 21. Each dot indicates an individual mouse and horizontal and vertical bars indicate means±SEM. *P<0.05, **P<0.01 Kruskal-Wallis test with Dunn's post hoc test comparing treatment groups against vehicle group. (D-G) BALB/c mice (n=10/group) were treated with 1V270 (200 μg/injection) on day-1 and 4T1 cells were inoculated on day 0. (D,E) Three weeks later, mLNs cells were stained for CD3 and CD8. Intracellular granzyme B (D) and IFNγ (E) were analyzed by flow cytometry. Data are representative of 2 independent experiments showing similar results. *P<0.05, by the Mann-Whitney U test comparing the 1V270 treatment groups against the vehicle treated group. (F) Histological analysis of lungs on day 21. Representative images of H&E staining and immunohistochemical staining for CD3 and CD45. Scale bar: 100 μm. Original magnification ×200. (G) Tumor-specific cytotoxicity was examined using 4T1 cells as target cells and BALB/3T3 cells as irrelevant target cells. […] The percent specific killing was calculated. Data were analyzed by two-way ANOVA using a Bonferroni post hoc test comparing treatment groups against vehicle group. *P<0.05. […]
# To make the single cell suspensions, tumors were dissociated using the mouse tumor dissociation kit (MiltenyiBiotec, San Diego, Calif.) and the gentle MACSOcto Dissociator according to the manufacture's protocol. […] Total cell number was counted by the ViaCount assay (MilliporeSigma, Darmstadt, Germany). […]
smiles,measurement,setting,value
CCCCCCCCC=CCCCCCCCC(=O)OCC(COP(=O)(O)OCCNC(=O)c1ccc(Cn2c(=O)[nH]c3c(N)nc(OCCOC)nc32)cc1)OC(=O)CCCCCCCC=CCCCCCCCC (stereo not drawn) [1V270],infiltration of CD45+CD3+ cells in the pulmonary tumor microenvironment,histology,higher infiltration
same,percentage of IFNγ positive CD8+ T cells,"mLN, 1V270 200 μg day -1",Significantly higher percentages
same,percentage of granzyme B positive CD8+ T cells,"mLN, 1V270 200 μg day -1",Significantly higher percentages
